Where a SMILES comes first, the peptide text is derived from it. Bridges are numbered along the chain shown (N, C = ends). [ ]: non-standard residue; d: D form. Trp(βS-Me) = C[C@@H](c1c[nH]c2ccccc12)[C@H](N)C(=O)O; Phe(3-CF3) = N[C@@H](Cc1cccc(C(F)(F)F)c1)C(=O)O; Ala(morpholin-4-yl) = N[C@@H](CN1CCOCC1)C(=O)O; Phe(4-COOH) = N[C@@H](Cc1ccc(C(=O)O)cc1)C(=O)O; Phe(4-CH2NH2) = NCc1ccc(C[C@H](N)C(=O)O)cc1; Bip = N[C@@H](Cc1ccc(-c2ccccc2)cc1)C(=O)O; Phe(4-Br) = N[C@@H](Cc1ccc(Br)cc1)C(=O)O; 2Thi = N[C@@H](Cc1cccs1)C(=O)O; Cha = N[C@@H](CC1CCCCC1)C(=O)O; Orn = NCCC[C@H](N)C(=O)O; Dab = NCC[C@H](N)C(=O)O
molecular target: T1, human PD-1 / PD-L1-Ig binding on Jurkat cell line over-expressing human PD-1 (Jurkat-PD-1) (Homo sapiens, UniProt Q15116); experiment: Jurkat-PD-1 Cell Binding High-Content Screening Assay (CBA); type: cell-based; conditions: Jurkat-PD-1 cells, PE-labeled PD-L1-Ig 20 nM final; read-out: Jurkat HPD1_PDL1 IC50
T1 construct: expressed in transfected cells; host or cells: Jurkat
Procedure, shortened: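 Read-out: high-content imaging of PE-tagged PD-L1-Ig bound to Jurkat cells overexpressing human PD-1, after fixation with 4% paraformaldehyde and Hoechst 33342 nuclear staining. Ligand was used at 20 nM final for 1 hour, after a 2 h compound exposure at 37° C in serum-containing DMEM.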

T1 sequence (Q15116 25-288): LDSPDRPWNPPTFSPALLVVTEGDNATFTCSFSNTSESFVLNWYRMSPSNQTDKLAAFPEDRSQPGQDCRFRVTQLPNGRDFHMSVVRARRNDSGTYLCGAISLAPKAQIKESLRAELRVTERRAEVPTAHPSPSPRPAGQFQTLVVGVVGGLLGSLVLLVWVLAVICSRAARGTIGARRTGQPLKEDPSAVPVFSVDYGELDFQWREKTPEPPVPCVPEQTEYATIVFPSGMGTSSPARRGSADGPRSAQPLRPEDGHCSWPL

CC(C)C[C@H]1NC(=O)[C@H](CCCN)NC(=O)[C@H](Cc2ccc(C(=O)O)cc2)NC(=O)[C@H](Cc2ccc(-c3ccccc3)cc2)NC(=O)[C@H](Cc2ccc(-c3ccccc3)cc2)NC(=O)[C@H](Cc2cccc(C(F)(F)F)c2)NC(=O)[C@H](CC(=O)O)NC(=O)[C@H](Cc2ccc(C(=O)O)cc2)NC(=O)[C@H](CN2CCOCC2)NC(=O)CSC[C@@H](C(=O)N[C@@H](CCN)C(N)=O)NC(=O)[C@H](CCC(=O)O)NC(=O)[C@H](C(C)C)NC(=O)[C@H](CC2CCCCC2)NC(=O)[C@H](CCN)NC1=O [Example 2746] ({CH2CO}-[Ala(morpholin-4-yl)][Phe(4-COOH)]D[Phe(3-CF3)][Bip][Bip][Phe(4-COOH)][Orn][dL][Dab][Cha]VEC[Dab]-NH2; thioether N-14) was tested. Which IC50 did it give?
The IC50 was 3.7 nM.

For CC(C)C[C@H]1NC(=O)[C@H](CCCN)NC(=O)[C@H](Cc2ccc(C(=O)O)cc2)NC(=O)[C@H](Cc2ccc(-c3ccccc3)cc2)NC(=O)[C@H](Cc2ccc(CN)cc2)NC(=O)[C@H](Cc2cccc(C(F)(F)F)c2)NC(=O)[C@H](CC(=O)O)NC(=O)[C@H](Cc2ccc(C(=O)O)cc2)NC(=O)[C@H](CN2CCOCC2)NC(=O)CSC[C@@H](C(=O)N[C@@H](CCN)C(N)=O)NC(=O)[C@H](CCC(=O)O)NC(=O)[C@H](C(C)C)NC(=O)[C@H](CC2CCCCC2)NC(=O)[C@H](CCN)NC1=O [Example 2747] ({CH2CO}-[Ala(morpholin-4-yl)][Phe(4-COOH)]D[Phe(3-CF3)][Phe(4-CH2NH2)][Bip][Phe(4-COOH)][Orn][dL][Dab][Cha]VEC[Dab]-NH2; thioether N-14), which IC50 is on record?
Its IC50 is 2.8 nM.

How did the IC50 turn out when CC(C)C[C@H]1NC(=O)[C@H](CCCN)NC(=O)[C@H](Cc2ccc(C(=O)O)cc2)NC(=O)[C@H](Cc2ccc(-c3ccccc3)cc2)NC(=O)[C@H]([C@@H](C)c2c[nH]c3ccccc23)NC(=O)[C@H](Cc2cccc(C(F)(F)F)c2)NC(=O)[C@H](CC(=O)O)NC(=O)[C@H](Cc2ccc(C(=O)O)cc2)NC(=O)[C@H](CN2CCOCC2)NC(=O)CSC[C@@H](C(=O)N[C@@H](CCN)C(N)=O)NC(=O)[C@H](CCC(=O)O)NC(=O)[C@H](C(C)C)NC(=O)[C@H](CC2CCCCC2)NC(=O)[C@H](CCN)NC1=O [Example 2748] ({CH2CO}-[Ala(morpholin-4-yl)][Phe(4-COOH)]D[Phe(3-CF3)][Trp(βS-Me)][Bip][Phe(4-COOH)][Orn][dL][Dab][Cha]VEC[Dab]-NH2; thioether N-14) was run?
Its IC50 is 25.2 nM.

For CC(C)C[C@H]1NC(=O)[C@H](CCCN)NC(=O)[C@H](Cc2ccc(C(=O)O)cc2)NC(=O)[C@H](Cc2ccc(-c3ccccc3)cc2)NC(=O)[C@H](Cc2cccs2)NC(=O)[C@H](Cc2cccc(C(F)(F)F)c2)NC(=O)[C@H](CC(=O)O)NC(=O)[C@H](Cc2ccc(C(=O)O)cc2)NC(=O)[C@H](CN2CCOCC2)NC(=O)CSC[C@@H](C(=O)N[C@@H](CCN)C(N)=O)NC(=O)[C@H](CCC(=O)O)NC(=O)[C@H](C(C)C)NC(=O)[C@H](CC2CCCCC2)NC(=O)[C@H](CCN)NC1=O [Example 2749] ({CH2CO}-[Ala(morpholin-4-yl)][Phe(4-COOH)]D[Phe(3-CF3)][2Thi][Bip][Phe(4-COOH)][Orn][dL][Dab][Cha]VEC[Dab]-NH2; thioether N-14), which IC50 is on record?
The IC50 was 1.9 nM.

CC(C)C[C@H]1NC(=O)[C@H](CCCN)NC(=O)[C@H](Cc2ccc(C(=O)O)cc2)NC(=O)[C@H](Cc2ccc(-c3ccccc3)cc2)NC(=O)[C@H](Cc2ccc(Br)cc2)NC(=O)[C@H](Cc2cccc(C(F)(F)F)c2)NC(=O)[C@H](CC(=O)O)NC(=O)[C@H](Cc2ccc(C(=O)O)cc2)NC(=O)[C@H](CN2CCOCC2)NC(=O)CSC[C@@H](C(=O)N[C@@H](CCN)C(N)=O)NC(=O)[C@H](CCC(=O)O)NC(=O)[C@H](C(C)C)NC(=O)[C@H](CC2CCCCC2)NC(=O)[C@H](CCN)NC1=O [Example 2750] ({CH2CO}-[Ala(morpholin-4-yl)][Phe(4-COOH)]D[Phe(3-CF3)][Phe(4-Br)][Bip][Phe(4-COOH)][Orn][dL][Dab][Cha]VEC[Dab]-NH2; thioether N-14) was tested. Which IC50 did it give?
Its IC50 is 200 nM.

— patent publication US20250163104A1, “MACROCYCLIC IMMUNOMODULATORS” (priority 2021, published 2025)
